Test results published in patent US8575103B2, “Peptides and methods for inhibiting G alpha protein signaling” (The Board of Trustees of the University of Illinois, priority 2009, dated 2013).
Entries after “also recorded” stand apart in the source; their conditions may differ. Read-outs that look alike come from different tables or passages of the source. Where no end group is shown, it is not given here. The star is where a group is joined. Myristoyl = CCCCCCCCCCCCCC(=O)*

Tests used:
[1] = system: CD1 mice; experiment: bleeding time in mice after intravenous administration; assay type: in vivo; conditions: 100 μl of 3.7 mM intravenously via tail vein, tail cut five minutes after administration
Description: Briefly, CD1 mice (25 grams) were anesthetized with sodium pentobarbital, and either 100 μl of vehicle or 100 μl of a vehicle solution containing 3.7 mM of each peptide or aspirin was administered intravenously via the tail vein. Five minutes following administration, the tail was cut 0.5 cm from the tip and immersed in PBS buffer (pH 7.4; 37EC). Cessation of bleeding was observed visually and the total bleeding time was recorded.

[2] = target: T1, α11bβ3 integrin (Homo sapiens, UniProt P05106+P08514+Q9Y490); experiment: peptide affinity column with solubilized human platelets, western blot for α11bβ3; assay type: binding; conditions: immunoblot, bands at 130 kD and 115 kD
T1 construct: detected two bands, one at 130 kD and the other at 115 kD in solubilized human platelets; endogenous in cells; host or cells: solubilized human platelets
Description: (§1) On this basis, subsequent experiments examined whether G13SR2pep peptide (SEQ ID NO:5) does indeed directly interact with α11bβ3 and/or one of its associated proteins in human platelets. In this respect, platelet α11bβ3 integrin is known to exist in a complex with two cytoplasmic proteins, i.e., talin and kindlin-3 (Tadokoro, et al. (2003) Science 302:103-6; Moser, et al. (2008) Nature Med. 14:325-30). To determine whether G13SR2pep, (SEQ ID NO:5) interacts with any of these proteins (or with the entire α11bβ3, talin, kindlin-3 complex), peptide affinity columns using G13SR2pep (SEQ ID NO:5) were employed. The affinity purified protein(s) from solubilized human platelets that specifically bound to the G13SR2pep peptide were eluted, and analyzed by western blot for α11bβ3 integrin, talin and kindlin-3. In similar experiments, the eluates from a peptide column using the G13SR2-Random Peptide (SEQ ID NO:9) were also analyzed. Immunoblot analysis with the α11bβ3 antibodies (Abcam) detected two bands, one at 130 kD and the other at 115 kD in solubilized human platelets as well as in the elution fraction obtained from the G13SR2pep (SEQ ID NO:5) affinity column. […] This was supported by similar experiments using talin antibodies and the kindlin 3 antibody (Abcam).

[3] = system: human platelets; experiment: human platelet aggregation in platelet rich plasma (PRP); assay type: cell-based
[4] = target: T2, kindlin-3 (Homo sapiens, UniProt Q86UX7); experiment: peptide affinity column with solubilized human platelets, western blot for kindlin-3; assay type: binding; conditions: immunoblot, kindlin 3 (72 kD)
T2 construct: also purified whole talin (220 kD), the talin head domain (47 kD) and kindlin 3 (72 kD); endogenous in cells; host or cells: solubilized human platelets
Description: as §1

[5] = target: T3, talin (Homo sapiens, UniProt Q9Y490); experiment: peptide affinity column with solubilized human platelets, western blot for talin; assay type: binding; conditions: solubilized human platelets, immunoblot; whole talin (220 kD), talin head domain (47 kD)
T3 construct: also purified whole talin (220 kD), the talin head domain (47 kD) and kindlin 3 (72 kD); endogenous in cells; host or cells: solubilized human platelets
Description: as §1
Thus, the binding of G13SR2pep (SEQ ID NO:5) to the talin head domain serves as the basis for the ability of G13SR2pep to inhibit α11bβ3 integrin activation and platelet aggregation. As such, peptides or specific compounds fashioned to mimic or modify the switch region interaction with talin, α11bβ3 integrin or other α11bβ3 integrin-associated proteins would have profound effects on thrombosis and other integrin-linked disease processes.

[6] = system: human platelets; experiment: human platelet aggregation in platelet rich plasma (PRP); assay type: cell-based; conditions: for effect on human platelet aggregation induced by U46619 (TP): 0.5 μM U46619
Description: Trace (a) is control data from human platelet rich plasma (PRP) incubated with 500 μM of the Random Peptide (Myr-Leu-Ile-Arg-Pro-Tyr-Leu-His-Arg-Ala-Thr-Lys-Glu-Gly; SEQ ID NO:6), prior to stimulation with 15 μM of the PAR1 receptor agonist TRAP1. Trace (b) depicts data wherein PRP was treated with 30 μM Myr-G13SR1pep-2 prior to stimulation with 15 μM TRAP1. Trace (c) depicts data wherein PRP was treated with 50 μM Myr-G13SR1pep-2 prior to stimulation with 15 μM TRAP1. Trace (d) is control data showing PRP treated with 500 μM of the Random Peptide (SEQ ID NO:6) prior to stimulation with the 0.5 μM thromboxane receptor agonist U46619. Trace (e) depicts data wherein PRP was treated with 500 μM Myr-G13SR1pep-2 prior to stimulation with 0.5 μM U46619. Trace (f) is control data showing PRP treated with 500 μM of the Random Peptide (SEQ ID NO:6) prior to stimulation with 10 μM of the P2Y1/P2Y12 receptor agonist ADP. […] Trace (h) depicts control data showing PRP treated with 500 μM of the Random Peptide (SEQ ID NO:6) prior to stimulation with 40 μM of the PAR4 receptor agonist TRAP4. Trace (i) depicts data wherein PRP was treated with 500 μM Myr-G13SR1pep-2 prior to stimulation with 40 μM TRAP4.
Trace (a) depicts control data showing PRP treated with 500 μM of the Random Peptide (Myr-Gln-Arg-Ile-Arg-Phe-Cys-Ser-Glu-Gly-Val-Glu-Lys-Gly-His-Trp-Asn-Arg; SEQ ID NO:7) prior to stimulation with 15 μM of the PAR1 receptor agonist TRAP1. Trace (b) depicts data wherein PRP was treated with 500 μM Myr-GqSR2pep prior to stimulation with 15 μM TRAP1. Trace (c) is control data showing PRP treated with 500 μM Random Peptide (SEQ ID NO:7) prior to stimulation with the 0.5 μM of the thromboxane receptor agonist U46619. Trace (d) depicts data wherein PRP was treated with 50 μM Myr-GqSR2pep, prior to stimulation with 0.5 μM U46619. Trace (e) depicts data wherein PRP was treated with 150 μM Myr-GqSR2pep prior to stimulation with 0.5 μM U46619. Trace (f) is control data showing PRP treated with 500 μM Random Peptide (SEQ ID NO:7) prior to stimulation with 10 μM ADP. Trace (g) depicts data wherein PRP was treated with 50 μM Myr-GqSR2pep prior to stimulation with 10 μM ADP. Trace (h) depicts data wherein PRP was treated with 150 μM Myr-GqSR2pep prior to stimulation with 10 μM ADP. Trace (i) is control data showing PRP treated with 500 μM Random Peptide (SEQ ID NO:7) prior to stimulation with 40 μM of the PAR4 receptor agonist TRAP4. Trace (j) depicts data wherein PRP was treated with 150 μM Myr-GqSR2pep prior to stimulation with 40 μM of TRAP4.
Trace (a) is control data showing PRP treated with 500 μM of the Random Peptide (Myr-Gly-Ile-His-Glu-Trp-Glu-Val-Gly-Ser-Phe-Lys-Gly-Cys-Gln-Lys-Arg-Arg; SEQ ID NO:8) prior to stimulation with 15 μM of the PAR1 receptor agonist TRAP1. Trace (b) depicts data wherein PRP was treated with 500 μM Myr-GiSR2pep prior to stimulation with 15 μM TRAP1. Trace (c) is control data showing PRP treated with 500 μM Random Peptide (SEQ ID NO:8) prior to stimulation with the 0.5 μM of the thromboxane receptor agonist U46619. Trace (d) depicts data wherein PRP was treated with 500 μM Myr-GiSR2pep prior to stimulation with 0.5 μM U46619. Trace (e) is control data showing PRP treated with 500 μM Random Peptide (SEQ ID NO:8) prior to stimulation with 10 μM ADP. Trace (f) depicts data wherein PRP was treated with 150 μM Myr-GiSR2pep, prior to stimulation with 10 μM ADP. Trace (g) depicts data wherein PRP was treated with 500 μM Myr-GiSR2pep prior to stimulation with 10 μM ADP. Trace (h) is control data showing PRP treated with 500 μM Random Peptide prior (SEQ ID NO:8) to stimulation with 40 μM of the PAR4 receptor agonist TRAP4. Trace (i) depicts data wherein PRP was treated with 500 μM Myr-GiSR2pep prior to stimulation with 40 μM of TRAP4 […]

[7] = system: human platelets; conditions: Huang, et al. (2007) J. Biol. Chem. 282:10210-10222; cited from earlier work
[8] = system: α11bβ3 integrin; experiment: platelet α11bβ3 integrin activation, FITC-PAC1 antibody binding by flow cytometry; assay type: cell-based, human; conditions: single substitution Arg232 to Ala versus parent G13SR2pep
Description: The platelet count in human PRP was adjusted to 1×10^6 platelets/ml. The platelets were then labeled with FITC-conjugated PAC1 antibody against activated α11bβ3 integrin, and the samples were analyzed by flow cytometry in a Beckman Coulter CyAn II Flow Cytometer. Trace (a) depicts resting platelets labeled with FITC-PAC-1 antibody. Trace (b) depicts platelets stimulated with 0.5 μM U46619 and labeled with FITC-PAC1 antibody. Trace (c) depicts platelets incubated with 500 μM of the Random Peptide (SEQ ID NO:9), followed by 0.5 μM U46619 stimulation and FITC-PAC1 labeling. Trace (d) depicts platelets incubated with 150 μM of the G13SR2pep, followed by 0.5 μM U46619 stimulation and FITC-PAC1 labeling.
Subsequent experiments examined the effect of G13SR2pep, (SEQ ID NO:5) on human platelet α11bβ3 integrin activation as measured by FITC-PAC-1 antibody binding.

[9] = PRP, 500 μM peptide, 15 μM TRAP1
[10] = PRP, 500 μM peptide, 40 μM TRAP4

T3 sequence (Q9Y490 1-433): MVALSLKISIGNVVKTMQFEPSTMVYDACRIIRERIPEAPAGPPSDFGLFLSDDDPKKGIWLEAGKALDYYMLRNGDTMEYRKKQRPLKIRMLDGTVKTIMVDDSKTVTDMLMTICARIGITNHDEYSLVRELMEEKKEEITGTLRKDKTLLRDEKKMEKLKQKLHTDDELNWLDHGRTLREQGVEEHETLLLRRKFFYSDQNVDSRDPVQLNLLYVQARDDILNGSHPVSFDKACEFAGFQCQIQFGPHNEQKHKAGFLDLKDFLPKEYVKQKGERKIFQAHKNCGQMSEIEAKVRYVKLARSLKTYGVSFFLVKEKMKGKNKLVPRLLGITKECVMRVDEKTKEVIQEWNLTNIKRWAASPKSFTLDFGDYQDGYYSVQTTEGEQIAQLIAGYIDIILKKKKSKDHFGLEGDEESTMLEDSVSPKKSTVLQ

CC(=O)Oc1ccccc1C(=O)O [ASA, aspirin, reference compound]
bleeding time [1]: increase

GFDEWEVSFKGCQRRSR [Random Peptide (SEQ ID NO:9), random peptide control for G13SR2pep, reference compound]
α11bβ3 in affinity column eluate (interaction with peptide) [2]: did not reveal the presence | inhibition of human platelet aggregation stimulated by U46619 ([3]; PRP, 75-150 μM G13SR2pep (Random Peptide 500 μM), 0.5 μM U46619): without effect | inhibition of human platelet aggregation stimulated by ADP ([3]; PRP, 75-150 μM G13SR2pep (Random Peptide 500 μM), 10 μM ADP): without effect | inhibition of human platelet aggregation stimulated by TRAP1 ([3]; PRP, 75-150 μM G13SR2pep (Random Peptide 500 μM), 15 μM TRAP1): without effect | inhibition of human platelet aggregation stimulated by TRAP4 ([3]; PRP, 75-150 μM G13SR2pep (Random Peptide 500 μM), 50 μM TRAP4): without effect | kindlin 3 in affinity column eluate [4]: did not reveal the presence | talin in affinity column eluate [5]: did not reveal the presence

Myr-Leu-Leu-Ala-Arg-Arg-Pro-Thr-Ala-Gly-Ile-His-Glu-Tyr (Myristoyl-LLARRPTAGIHEY) [Myr-G13SR1pep-2, myristoylated Gα13 switch region 1 peptide, Lys changed to Ala]
effect on human platelet aggregation induced by U46619 (TP) ([6]; PRP, 500 μM peptide): no measurable effect | effect on human platelet aggregation induced by ADP ([6]; PRP, 500 μM peptide, 10 μM ADP): no measurable effect | effect on human platelet aggregation induced by TRAP1 (PAR1) [6, 9]: no measurable effect | effect on human platelet aggregation induced by TRAP4 (PAR4) [6, 10]: no measurable effect | inhibition of PAR1-induced human platelet aggregation ([6]; PRP, 30-50 μM peptide, 15 μM TRAP1): progressive inhibition; also recorded: blocked | potency relative to the original peptide (Myr-G13SR1pep) for inhibition of PAR1-induced human platelet aggregation ([6]; human PRP): ten-fold increased potency | bleeding time [1]: increased bleeding times; also recorded: substantially increases

Myr-Leu-Leu-Ala-Arg-Arg-Pro-Thr-Lys-Gly-Ile-His-Glu-Tyr (Myristoyl-LLARRPTKGIHEY) [Myr-G13SR1pep, original permeable peptide representing SR1 of the Gα13 subunit (Huang, et al. 2007)]
inhibition of PAR1-induced human platelet aggregation [7]: selectively and dose-dependently inhibited

Myr-Val-Gly-Gly-Gln-Arg-Ser-Glu-Arg-Arg-Lys-Trp-Ile-His-Cys-Phe-Glu-Asn (Myristoyl-VGGQRSERRKWIHCFEN) [Myr-GqSR2pep, myristoylated Gαq switch region 2 peptide]
effect on human platelet aggregation induced by TRAP1 (PAR1) [6, 9]: ineffective | inhibition of human platelet aggregation induced by PAR4 receptors ([6]; PRP, 50-150 μM peptide, 40 μM TRAP4): dose-dependent inhibition | inhibition of human platelet aggregation induced by TP receptors ([3]; PRP, 50-150 μM peptide, 0.5 μM U46619): dose-dependent inhibition | inhibition of human platelet aggregation induced by ADP receptors ([3]; PRP, 50-150 μM peptide, 10 μM ADP): dose-dependent inhibition

Myr-Val-Gly-Gly-Gln-Arg-Ser-Glu-Arg-Lys-Lys-Trp-Ile-His-Cys-Phe-Glu-Gly (Myristoyl-VGGQRSERKKWIHCFEG) [Myr-Gi SR2pep, myristoylated Gαi switch region 2 peptide]
effect on human platelet aggregation induced by U46619 (TP) ([6]; PRP, 500 μM peptide): without affecting | effect on human platelet aggregation induced by TRAP1 (PAR1) [6, 9]: without affecting | effect on human platelet aggregation induced by TRAP4 (PAR4) [6, 10]: without affecting | inhibition of ADP-induced aggregation ([6]; PRP, 150-500 μM peptide, 10 μM ADP): dose-dependent (150-500 μM) inhibition

RSERKRWFECFD [G13SR2pep-truncated, truncated version of the G13 Switch Region 2 peptide]
inhibition of human platelet aggregation compared with full length G13SR2pep ([3]; PRP, 150 μM peptide, 15 μM TRAP1 or 0.5 μM U46619 (FIG. 5)): inhibited human platelet aggregation with the same potency

VGGQRSERKAWFECFDS [G13SR2mutant pep, G13SR2pep with single substitution at amino acid 232 from Arg to Ala, reference compound]
ability to block platelet activation ([3]; single substitution Arg232 to Ala versus parent G13SR2pep): completely eliminated the ability | ability to block integrin activation [8]: completely eliminated the ability
